In PubChem BioAssay AID850 (SRMLSC, 2007) one finds inhibition and IC50 data, which are given here for 53 compounds.

Structures are written as SMILES. The source made the active and inactive calls. No rule for the calls is given here.

Assay [1] in a line: concentration-response yeast growth inhibition under permissive conditions, counter-assay for yeast lifespan-shortening chemical project (AID 850).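 Also: growth read as optical density after one day of incubation.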 Particulars: Saccharomyces cerevisiae growth inhibition, permissive control, measured here: maximum growth inhibition, stronger effect = higher value.
In assay [2] the test system is Saccharomyces cerevisiae growth inhibition, permissive control. The assay is described as above.

As for `Cc1cccc(C(=O)Oc2csc(=S)n2C(=O)c2cccc(C)c2)c1`, the inhibition – broadly, the drop in the measured response relative to a control, in per cent – in assay [1] (at 50 µM) stood at 55.6%. Also, in assay [2], the IC50 (in general, the concentration that gives 50% inhibition) is 47.8 µM.
On to `Cc1cccc(C(=O)NC(=S)NNC(=O)c2cccs2)c1`, for which, in assay [1] (at 50 µM), the inhibition came to 76%. In assay [2], the IC50 was 19.9 µM.
For `CC1(C)Cc2c(C#N)c(N)sc(=S)c2CO1`, the inhibition in assay [1] (at 12.5 µM) was 23.1%. Further, in assay [2], the IC50 is > 100 µM (inactive).
In the case of `O=C1C(=O)c2ccccc2-c2ccccc21`, the inhibition in assay [1] (at 50 µM) came to 99.2%. For the same compound, the IC50 in assay [2] is 1.01 µM.
As for `Cc1cc2nc(C)n3c4ccccc4nc3n2n1`, the inhibition in assay [1] (at 50 µM) was 63.4%. The IC50 in assay [2] is 35.3 µM.
As to `O=C1CCCC/C1=N\Nc1ccc(OCc2ccccc2)cc1`, the inhibition in assay [1] (at 50 µM) was 72.5%. Also, the IC50 in assay [2] is 29.7 µM.
The matching figures for `CC(=O)O/N=C/c1c(N2CCOCC2)n(C)c2ccccc12`: 96.5% and 17.5 µM.
As for `O=C(c1ccc(Cl)cc1)c1c[nH]c(C(=O)C(Cl)(Cl)Cl)c1`, the inhibition in assay [1] (at 50 µM) worked out at 77.6%. The IC50 in assay [2] is 47.4 µM.
On to `CCOc1ccc(-c2[nH]ncc2Oc2cccc(OC)c2)c(O)c1`, for which, in assay [1] (at 50 µM), the inhibition is 28.1%. In addition, in assay [2], the IC50 was > 100 µM (inactive).
`O=C(O)c1ccccc1C(=O)NNc1ccc(Cl)cc1`: the inhibition in assay [1] (at 50 µM) was 96.5%. Moreover, the IC50 in assay [2] was 7.11 µM.
For `CC(C)CC(=O)/C(=C\c1ccc(Cl)cc1Cl)n1cncn1`, in assay [1] (at 50 µM), the inhibition amounted to 100%. In addition, the half-inhibitory concentration (IC50) in assay [2] is 11.7 µM.
`COc1cc(Br)cc(/C=N/c2ncn[nH]2)c1O`: in assay [1] (at 50 µM), the inhibition was found to be 97.8%. Also, the IC50 in assay [2] was 18.3 µM.
The matching figures for `CCOc1ccc(/C=C/C(=O)c2cc(Br)ccc(=O)c2O)cc1`: 89.6% and 16.7 µM.
On to `COc1ccc2c(c1)c1nnc(SC)nc1n2C`, for which the inhibition in assay [1] (at 50 µM) came out at 63.9%. The IC50 in assay [2] is 48.3 µM.
As to `CCCCCCOC(=O)Sc1nc2ccccc2o1`, the inhibition in assay [1] (at 50 µM) is 99%. In addition, the IC50 in assay [2] was 11.7 µM.
Regarding `COc1ccc(-c2n[nH]c(C(F)(F)F)c2-c2cc3ccccc3o2)c(O)c1`, in assay [1] (at 50 µM), the inhibition was determined as 53.6%. The IC50 in assay [2] is 36.6 µM.
Take `O=C1OCC(CO)(CO)N=C1NNc1ccccc1Cl`: the inhibition in assay [1] (at 25 µM) amounted to 98.4%. Further, the half-inhibitory concentration (IC50) in assay [2] was 3.49 µM.
As to `Cc1cccc(/C=C/C(=O)c2cc(Br)ccc(=O)c2O)c1`, the inhibition in assay [1] (at 50 µM) turned out to be 83.2%. In addition, the IC50 in assay [2] was 12.2 µM.
Regarding `COC1=C(c2ccccc2)C(=O)c2ccccc2C1=O`, the inhibition in assay [1] (at 50 µM) stood at 96.4%. The IC50 in assay [2] is 19.8 µM.
Turning to `CCCCCC/C(=N/O)c1ccccn1`, the inhibition in assay [1] (at 50 µM) is 99.6%. The IC50 in assay [2] was 9.77 µM.
On to `COC(=O)CSCc1nc2ccccc2[nH]c1=O`, for which the inhibition in assay [1] (at 1.563 µM) is 20.2%. In assay [2], the IC50 was > 100 µM (inactive).
As for `COc1ccc(-c2cc3nc(C)cc(N4CC(C)CC(C)C4)n3n2)cc1` (stereo unspecified), the inhibition in assay [1] (at 50 µM) is 48.3%. For the same compound, the IC50 in assay [2] was 50.7 µM.
Turning to `CC(=O)NC(CCS(C)(=O)=O)C(=O)Nc1ccc2c(c1)OCO2` (stereo unspecified), the inhibition in assay [1] (at 1.563 µM) was -0.58%. In addition, the IC50 in assay [2] is > 100 µM (inactive).
Turning to `Oc1c(I)cc(Cl)c2cccnc12`, in assay [1] (at 50 µM), the inhibition amounted to 98%. In addition, the IC50 in assay [2] was 16.7 µM.
For `Cc1cccc(CSc2cccc3cccnc23)c1`, in assay [1] (at 50 µM), the inhibition amounted to 99.4%. The IC50 in assay [2] is 13.8 µM.
For `CCN1/C(=C(\O)c2ccccc2)C(=O)c2ccccc2S1(=O)=O`, the inhibition in assay [1] (at 1.563 µM) amounted to 19.4%. Further, the IC50 in assay [2] is > 100 µM (inactive).
With `COc1ccc(-c2cc(-c3ccccc3O)[nH]n2)cc1`, in assay [1] (at 1.563 µM), the inhibition is 3.65%. The IC50 in assay [2] was > 100 µM (inactive).
For the compound `Cc1[nH]n(-c2ccccc2)c(=O)c1/C=N/N1C(=O)c2ccc3c4c(ccc(c24)C1=O)CC3`, the inhibition in assay [1] (at 0.781 µM) turned out to be 8.51%. The IC50 in assay [2] was > 100 µM (inactive).
For the compound `Cc1nc2ccccc2c2nc3ccccc3n12`, the inhibition in assay [1] (at 50 µM) was 63.9%. Moreover, the IC50 in assay [2] is 38.5 µM.
Turning to `C=CCc1c(C)c(C#N)c2nc3ccccc3n2c1NCCN(C)C`, in assay [1] (at 50 µM), the inhibition was 98.6%. In addition, the IC50 in assay [2] is 12.5 µM.
For the compound `COc1ccc(Br)cc1C1CC(=O)N2CN(C)CSC2=C1C#N` (stereo unspecified), the inhibition in assay [1] (at 1.563 µM) was found to be 17%. In assay [2], the IC50 is > 100 µM (inactive).
For the compound `OC(CNCC1CCCO1)Cn1c2ccc(Br)cc2c2cc(Br)ccc21` (stereo unspecified), in assay [1] (at 50 µM), the inhibition came out at 98.8%. For the same compound, the IC50 in assay [2] is 41 µM.
Take `O=C1CCN2C=Nc3cccc4ccc1c2c34`: the inhibition in assay [1] (at 25 µM) is 26%. The IC50 in assay [2] is > 100 µM (inactive).
As to `Cn1c(C(=O)N2CCC(C(=O)N3CCN(Cc4ccc5c(c4)OCO5)CC3)CC2)cc2sccc21`, the inhibition in assay [1] (at 12.5 µM) turned out to be 18%. Moreover, the IC50 in assay [2] is > 100 µM (inactive).
Regarding `Cc1ccc(NC(=S)Nc2ccc(Cl)c(Cl)c2)c(OC(F)F)c1`, the inhibition in assay [1] (at 50 µM) was 76%. In addition, the IC50 in assay [2] is 24.8 µM.
For the compound `c1ccc(-c2nc(-n3ccnc3)nc(-n3ccnc3)n2)cc1`, in assay [1] (at 1.563 µM), the inhibition came out at 17.9%. Further, the IC50 in assay [2] was > 100 µM (inactive).
In the case of `COc1ccc(OCCNC2CCCC2)cc1`, in assay [1] (at 0.195 µM), the inhibition was determined as 7.53%. Further, the IC50 in assay [2] is > 100 µM (inactive).
With `OC(COc1ccc2ccccc2c1Br)Cn1cnc(-c2ccccc2)c1` (stereo unspecified), the inhibition in assay [1] (at 50 µM) came to 20.9%. Further, in assay [2], the IC50 is > 100 µM (inactive).
On to `O=C(O)c1ccc(N(c2ccccc2)c2ccccc2)cc1`, for which the inhibition in assay [1] (at 0.195 µM) worked out at 10.2%. Moreover, the IC50 in assay [2] was > 100 µM (inactive).
With `Cc1ccc(/C(N)=N/OC(=O)c2ccc(C)cc2Cl)cc1`, the inhibition in assay [1] (at 50 µM) stood at 98.4%. Besides, the IC50 in assay [2] was 8.59 µM.
Regarding `N#C/C(=C\c1ccc([N+](=O)[O-])o1)c1nc2ccccc2[nH]1`, in assay [1] (at 6.25 µM), the inhibition worked out at 21.4%. Also, the IC50 in assay [2] was > 100 µM (inactive).
As for `CC1=NOC(=O)/C1=C/c1ccc(-c2ccc(Cl)cc2)o1`, the inhibition in assay [1] (at 25 µM) was 90.5%. The IC50 in assay [2] was 11 µM.
Turning to `Oc1ccc(COCc2ccccc2)c2cccnc12`, the inhibition in assay [1] (at 50 µM) is 99.4%. Also, in assay [2], the IC50 is 6.07 µM.
In the case of `O=[N+]([O-])c1ccccc1-c1cc(-c2cc(Cl)ccc2O)n[nH]1`, the inhibition in assay [1] (at 12.5 µM) is 16.3%. In assay [2], the IC50 was > 100 µM (inactive).
On to `Clc1ccc(N=c2ssnc2Cl)cc1`, for which, in assay [1] (at 50 µM), the inhibition amounted to 66.3%. Moreover, in assay [2], the IC50 was 32.6 µM.
As for `N/C(Cc1ccc(Cl)cc1Cl)=N\OC(=O)c1cccs1`, in assay [1] (at 12.5 µM), the inhibition was determined as 100%. The half-inhibitory concentration (IC50) in assay [2] is 0.925 µM.
Consider `CN1CCN(C2=Cc3cc(Cl)ccc3Sc3cc(F)ccc32)CC1`, for which the inhibition in assay [1] (at 50 µM) is 100%. Besides, the IC50 in assay [2] is 20.4 µM.
Turning to `COc1ccc(NC(=O)C2CCCN2S(=O)(=O)c2cccc3cccnc23)c(OC)c1` (stereo unspecified), the inhibition in assay [1] (at 50 µM) came to 102%. For the same compound, the half-inhibitory concentration (IC50) in assay [2] was 5.82 µM.
Consider `N/C(Cc1ccc(Cl)cc1)=N\OC(=O)c1ccccc1`, for which the inhibition in assay [1] (at 50 µM) is 98%. In assay [2], the half-inhibitory concentration (IC50) was 29.8 µM.
Turning to `O=C(Nc1cccc(C(F)(F)F)c1)C(Sc1cccc[n+]1[O-])c1ccccc1` (stereo unspecified), in assay [1] (at 50 µM), the inhibition is 90.2%. Besides, in assay [2], the IC50 is 31.4 µM.
The like results for `O=C(N/N=C\c1cccc([N+](=O)[O-])c1O)C1COc2ccccc2O1` (stereo unspecified) were, in that order, 74.8% and 22 µM.
Consider `CCOc1cc(C2CC(=O)N3CN(C4CCCCC4)CSC3=C2C#N)ccc1O` (stereo unspecified), for which, in assay [1] (at 0.781 µM), the inhibition was determined as 8.66%. Also, in assay [2], the IC50 is > 100 µM (inactive).
For `CCCc1ccc(Oc2cn[nH]c2-c2ccc(O)c(C)c2O)cc1`, the inhibition in assay [1] (at 12.5 µM) turned out to be 101%. In assay [2], the IC50 was 7.32 µM.
